Laboratory results taken from the supplement of paper PMC11061612.

Assays:
Experiment in all cases: combination Emax (second highest fraction inhibited in the dose matrix, 72 h); higher = more inhibition; extreme values may be limits of the assay
[1] = system: HGC-27 (Gastric Carcinoma)
Method in brief: (§1)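 Bliss excess equals the observed combination effect minus the expected value EA + EB − EA·EB, where EA and EB are the effects of each agent alone. Combination Emax is the second-highest inhibition within the matrix. Inhibition was scaled from CellTiter-Glo 2.0 luminescence, with 0 set by vehicle wells and 1 by blank wells, after 72 hours of two-drug dosing of cells plated in 1536-well plates.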

[2] = system: MIA-PaCa-2 (Pancreatic Carcinoma)
Method in brief: as §1

[3] = system: VA-ES-BJ (Other Solid Carcinomas)
Method in brief: as §1

[4] = system: Caov-4 (Ovarian Carcinoma)
Method in brief: as §1

ACHN (Kidney Carcinoma) = system: ACHN (Kidney Carcinoma)
Method in brief: as §1

NB69 (Neuroblastoma) = system: NB69 (Neuroblastoma)
Method in brief: as §1

[5] = system: SW13 (Other Solid Carcinomas)
Method in brief: as §1

[6] = system: NCI-H1915 (Non-Small Cell Lung Carcinoma)
Method in brief: as §1

[7] = system: KYSE-450 (Esophageal Squamous Cell Carcinoma)
Method in brief: as §1

[8] = system: NCI-H727 (Other Solid Carcinomas)
Method in brief: as §1

[9] = system: TE-1 (Esophageal Squamous Cell Carcinoma)
Method in brief: as §1

[10] = system: BT-549 (Breast Carcinoma)
Method in brief: as §1

[11] = system: AMO-1 (Plasma Cell Myeloma)
Method in brief: as §1

[12] = system: OSC-20 (Oral Cavity Carcinoma)
Method in brief: as §1

[13] = system: C-4-I (Cervical Carcinoma)
Method in brief: as §1

[14] = system: OE19 (Esophageal Adenocarcinoma)
Method in brief: as §1

[15] = system: MLMA (Other Blood Carcinomas)
Method in brief: as §1

[16] = system: LU-65 (Non-Small Cell Lung Carcinoma)
Method in brief: as §1

[17] = system: RF-48 (B-Cell Non-Hodgkin's Lymphoma)
Method in brief: as §1

[18] = system: KMOE-2 (Acute Myeloid Leukemia)
Method in brief: as §1

SMILES | combination Emax [1] | combination Emax [2] | combination Emax [3] | combination Emax [4] | combination Emax (ACHN (Kidney Carcinoma)) | combination Emax (NB69 (Neuroblastoma)) | combination Emax [5] | combination Emax [6] | combination Emax [7] | combination Emax [8] | combination Emax [9] | combination Emax [10] | combination Emax [11] | combination Emax [12] | combination Emax [13] | combination Emax [14] | combination Emax [15] | combination Emax [16] | combination Emax [17] | combination Emax [18]
COc1nnc2ccc(N3CCC(c4ccc(OCCN5CCN(C)C(=O)[C@H]5C)cc4)CC3)nn12 [AZD5153] + Cn1cnc2c(F)c(Nc3ccc(Br)cc3Cl)c(C(=O)NOCCO)cc21 [Selumetinib] (first compound max 1 µM, 7x7, partner max 10 µM) | 0.796 | 0.859 | 0.481 | 0.706 | 0.634 | 1 | 0.593 | 0.732 | 0.429 | 0.678 | 0.601 | 0.518 | 0.928 | 0.23 | 0.883 | 0.631 | 0.906 | 0.789 | 0.362 | 1
CC1(C)CCC(CN2CCN(c3ccc(C(=O)NS(=O)(=O)c4ccc(NCC5CCOCC5)c([N+](=O)[O-])c4)c(Oc4cnc5[nH]ccc5c4)c3)CC2)=C(c2ccc(Cl)cc2)C1 [Venetoclax] + COc1cc(Nc2ncc3c(n2)-c2ccc(Cl)cc2C(c2c(F)cccc2OC)=NC3)ccc1C(=O)O [Alisertib] (first compound max 1 µM, 7x7, partner max 10 µM) | 0.919 | 0.583 | 0.505 | 0.447 | 0.698 | 0.915 | 0.599 | 0.455 | 0.437 | 0.326 | 0.635 | 0.529 | 0.868 | 0.345 | 0.804 | 0.785 | 0.866 | 0.314 | 0.59 | 0.928
CC1(C)CCC(CN2CCN(c3ccc(C(=O)NS(=O)(=O)c4ccc(NCC5CCOCC5)c([N+](=O)[O-])c4)c(Oc4cnc5[nH]ccc5c4)c3)CC2)=C(c2ccc(Cl)cc2)C1 [Venetoclax] + CN(C)CCCOc1ccc(-c2ccc3ncc4c(c3c2)n(C2CCOCC2)c(=O)n4C)cn1 [AZD0156] (first compound max 1 µM, 7x7, partner max 1 µM) | 0.362 | 0.375 | 0.227 | 0.226 | 0.78 | 0.329 | 0.465 | 0.285 | 0.15 | 0.317 | 0.098 | 0.179 | 0.814 | 0.16 | 0.269 | 0.281 | 0.93 | 0.362 | 0.212 | 0.207
Cc1c2c(nn1C)CSCc1cc(n(C)n1)CSc1cc(c3ccccc3c1)OCCCc1c(C(=O)O)n(C)c3c-2c(Cl)ccc13 [AZD5991] + CC1(C)CCC(CN2CCN(c3ccc(C(=O)NS(=O)(=O)c4ccc(NCC5CCOCC5)c([N+](=O)[O-])c4)c(Oc4cnc5[nH]ccc5c4)c3)CC2)=C(c2ccc(Cl)cc2)C1 [Venetoclax] (first compound max 1 µM, 7x7, partner max 1 µM) | 0.895 | 0.451 | 0.145 | 0.616 | 0.192 | 0.877 | 0.927 | 0.187 | 0.189 | 0.258 | 0.65 | 0.45 | 1 | 0.145 | 0.976 | 0.457 | 0.248 | 0.393 | 0.497 | 0.709
NC1(C(=O)N[C@@H](CCO)c2ccc(Cl)cc2)CCN(c2ncnc3[nH]ccc23)CC1 [Capivasertib] + CC(=O)c1c(C)c2cnc(Nc3ccc(N4CCNCC4)cn3)nc2n(C2CCCC2)c1=O [Palbociclib] (first compound max 10 µM, 7x7, partner max 10 µM) | 0.874 | 0.451 | 0.458 | 0.377 | 0.658 | 0.726 | 0.261 | 0.491 | 0.351 | 0.507 | 0.204 | 0.391 | 0.743 | 0.279 | 0.519 | 0.523 | 0.515 | 0.448 | 0.42 | 0.541
CS(=O)(=O)CCNCc1ccc(-c2ccc3ncnc(Nc4ccc(OCc5cccc(F)c5)c(Cl)c4)c3c2)o1 [Lapatinib] + C[C@@H](Oc1cc(-c2cnn(C3CCNCC3)c2)cnc1N)c1c(Cl)ccc(F)c1Cl [Crizotinib] (first compound max 10 µM, 7x7, partner max 10 µM) | 0.983 | 0.96 | 0.756 | 0.849 | 0.781 | 0.949 | 0.9 | 0.65 | 0.869 | 0.942 | 0.919 | 0.609 | 0.958 | 0.795 | 0.943 | 1 | 0.899 | 0.894 | 0.477 | 0.911
